The results in this text go back to US20080214646A1 (priority 2005, published 2008).

For series [1], the system named is carrageenan-induced rat paw edema. Briefly: Carrageenan-induced rat paw edema anti-inflammatory assay. The series is classed as in vivo. The note with it: for ED50: 3 h after oral administration, rat, read-out: AI activity ID50. Background: In the carrageenan paw model, swelling and tenderness develop within hours.
The target in the next series is T1, ovine COX-2 (Ovis aries, UniProt P79208).
T1 construct: purchased Cayman Chemical 560101
T1 sequence (P79208 17-603): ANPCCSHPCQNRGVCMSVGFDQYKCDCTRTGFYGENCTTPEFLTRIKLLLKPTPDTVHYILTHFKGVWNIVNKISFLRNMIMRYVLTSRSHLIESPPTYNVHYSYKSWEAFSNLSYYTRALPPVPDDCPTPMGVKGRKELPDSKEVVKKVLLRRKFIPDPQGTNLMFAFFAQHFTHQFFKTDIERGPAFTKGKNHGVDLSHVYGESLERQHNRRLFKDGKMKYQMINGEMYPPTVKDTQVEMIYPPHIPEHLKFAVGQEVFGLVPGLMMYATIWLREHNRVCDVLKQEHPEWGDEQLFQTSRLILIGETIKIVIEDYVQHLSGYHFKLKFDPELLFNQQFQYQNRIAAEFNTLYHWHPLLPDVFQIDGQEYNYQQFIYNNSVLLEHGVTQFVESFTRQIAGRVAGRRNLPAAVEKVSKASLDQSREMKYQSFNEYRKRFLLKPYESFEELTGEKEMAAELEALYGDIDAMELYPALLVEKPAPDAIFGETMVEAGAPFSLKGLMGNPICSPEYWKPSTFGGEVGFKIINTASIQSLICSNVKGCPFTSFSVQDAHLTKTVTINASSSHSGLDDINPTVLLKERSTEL
Briefly: In vitro ovine COX-2 enzyme inhibition (EIA kit). The note with it: for IC50: ovine COX-2, mean of two determinations. It counts as biochemical.

Series [2] in a line: Nitric oxide release in phosphate buffer (Griess reaction). The series is classed as physicochemical. The conditions noted are these: PBS pH 7.4, 37° C., 1.5 h; relative to theoretical maximum 2 mol NO/mol. A general note: Nitrite, measured by Griess reagent, commonly stands in for NO production.
Description: (§1) Nitric Oxide Release Assay: In vitro nitric oxide release, upon incubation with phosphate buffer, pig liver esterase, or guinea pig serum, was determined by quantification of nitrite produced by the reaction of nitric oxide with oxygen and water using the Griess reaction.
Another series concerns the target T2, ovine COX-1 (Ovis aries, UniProt P05979).
T2 construct: purchased Cayman Chemical 560101
T2 sequence (P05979 25-600): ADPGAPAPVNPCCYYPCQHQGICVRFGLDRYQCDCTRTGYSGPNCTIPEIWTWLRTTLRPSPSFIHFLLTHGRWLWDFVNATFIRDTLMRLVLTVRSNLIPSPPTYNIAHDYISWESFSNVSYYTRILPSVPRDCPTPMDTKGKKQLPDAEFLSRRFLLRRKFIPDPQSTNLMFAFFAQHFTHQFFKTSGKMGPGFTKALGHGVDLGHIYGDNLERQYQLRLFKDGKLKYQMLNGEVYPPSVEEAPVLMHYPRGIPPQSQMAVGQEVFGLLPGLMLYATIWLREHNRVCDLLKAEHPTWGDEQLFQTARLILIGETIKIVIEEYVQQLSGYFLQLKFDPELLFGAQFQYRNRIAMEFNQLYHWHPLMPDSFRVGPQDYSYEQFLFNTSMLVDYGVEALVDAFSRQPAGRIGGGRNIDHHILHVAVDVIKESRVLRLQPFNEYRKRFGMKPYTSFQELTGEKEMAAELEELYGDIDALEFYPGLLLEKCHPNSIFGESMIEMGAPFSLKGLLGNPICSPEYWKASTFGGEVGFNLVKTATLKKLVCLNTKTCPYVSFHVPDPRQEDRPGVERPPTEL
Kind of series: In vitro ovine COX-1 enzyme inhibition (EIA kit). The note with it: mean of two determinations. The series is classed as biochemical.

For another series, the system named is gastric ulcers. Briefly: Acute ulcerogenesis assay (gastric ulcer index). The note with it: oral, 6 h, rat. It counts as in vivo, rats. On the procedure:
All drugs were suspended and administered in 1.7 mL of a 1% methylcellulose solution. Control rats received oral administration of vehicle (1.7 mL of 1.0% methylcellulose solution). Food, but not water, was removed 24 h before administration of test compounds. Six hours after oral administration of the drug, rats were euthanized in a CO2 chamber and their stomachs were removed, cut out along the greater curvature of the stomach, gently rinsed with water and placed on ice. The number and the length of ulcers were determined using a magnifier lens. […] The average overall length (in mm) of individual ulcers in each tissue was designated as the “ulcer index”. Each experimental group consisted of four rats.

Another series concerns pig liver esterase. The note with it: 1.5 h, pH 7.4.
Where [3] appears, read: equivalent amount to 250 mg of aspirin/kg.
The mark [4] stands for this setting: equivalent amount to 250 mg of ibuprofen/kg.

“And” between values parts separate entries of the source, which are not always exact repeats. Equal entries are not always repeated. Marks after values point to notes of the source that are not given here.

Description for pig liver esterase: as §1

Consider `CC(C)Cc1ccc(C(C)C(=O)O)cc1` (racemic) [Ibuprofen, ibuprofen, reference compound], for which the ED50 in series [1] came to 67.4 mg/kg.

Take `CC(=O)Oc1ccccc1C(=O)O` [Aspirin, Acetyl salicylic acid, reference compound]: the “COX-2 S.I. (COX-1 IC50/COX-2 IC50)” value on ovine COX-2 (selectivity index) came out at 0.14. Moreover, in series [1], the ED50 was found to be 129 mg/kg.

Turning to `CN(C)[N+]([O-])=N[O-].[Na+]` [Compound 7, O^2-Sodium 1-(N,N-dimethylamino)diazen-1-ium-1,2-diolate, reference compound], the “% of Nitric oxide released, PBS (pH 7.4)” value in series [2] was 95.2 ± 0.1%.

For `CC(=O)Oc1ccccc1C(=O)OCON=[N+]([O-])N1CCCC1` [Compound 11, O^2(Acetylsalicyloyloxymethyl)-1-(pyrrolidin-1-yl)diazen-1-ium-1,2-diolate], the IC50 on ovine COX-1 and on ovine COX-2 was > 100 µM in each case. Moreover, the ED50 in series [1] came out at 182 mg/kg. The “% of Nitric oxide released, PBS (pH 7.4)” value in series [2] is 14.8 ± 0.1%. For the same compound, the Ulcer index in the series with gastric ulcers (setting [3]) was 0 mm and 0^d mm. Besides, in the series on pig liver esterase, the “% of Nitric oxide released, PLE” value stood at 18.5 ± 0.1%.

As to `CC(=O)Oc1ccccc1C(=O)OCON=[N+]([O-])N(C)C` [Compound 12, O^2(Acetylsalicyloyloxymethyl)-1-(N,N-dimethylamino)diazen-1-ium-1,2-diolate], the IC50 at ovine COX-1 and at ovine COX-2 was > 100 µM each time. In addition, in series [1], the ED50 is 151 mg/kg. Further, in series [2], the “% of Nitric oxide released, PBS (pH 7.4)” value was 15.4 ± 0.1%. In the series on gastric ulcers (setting [3]), the Ulcer index is 0 mm and 0^d mm. Besides, in the series with pig liver esterase, the “% of Nitric oxide released, PLE” value stood at 19.1 ± 0.1%.

Consider `CC(C)Cc1ccc(C(C)C(=O)OCON=[N+]([O-])N2CCCC2)cc1` (stereo not drawn) [Compound 13, O^2-[2-(4-(Isobutyl)phenyl)propanoyloxymethyl]-1-(pyrrolidin-1-yl)diazen-1-ium-1,2-diolate], for which the IC50 at ovine COX-1 and at ovine COX-2 was > 100 µM in each case. Further, in series [1], the ED50 was determined as 66.8 mg/kg. Moreover, the “% of Nitric oxide released, PBS (pH 7.4)” value in series [2] came out at 14.9 ± 0.1%. Further, in the series with gastric ulcers (setting [4]), the Ulcer index is 0 mm and 0^e mm. In addition, in the series with pig liver esterase, the “% of Nitric oxide released, PLE” value is listed as 16.3 ± 0.1%.

For the compound `CC(C)Cc1ccc(C(C)C(=O)OCON=[N+]([O-])N(C)C)cc1` (stereo not drawn) [Compound 14, O^2-[2-(4-(Isobutyl)phenyl)propanoyloxymethyl]-1-(N,N-dimethylamino)diazen-1-ium-1,2-diolate], the IC50 at ovine COX-1 and on ovine COX-2 was > 100 µM each time. The ED50 in series [1] is 62.3 mg/kg. Further, the “% of Nitric oxide released, PBS (pH 7.4)” value in series [2] is recorded as 16.1 ± 0.1%. Besides, the Ulcer index in the series with gastric ulcers (setting [4]) is 0 mm and 0^e mm. Besides, the “% of Nitric oxide released, PLE” value in the series on pig liver esterase turned out to be 17.3 ± 0.1%.

For the compound `COc1ccc2c(c1)c(CC(=O)OCON=[N+]([O-])N1CCCC1)c(C)n2C(=O)c1ccc(Cl)cc1` [Compound 15, O^2-[2-(1-(4-Chlorobenzoyl)-5-methoxy-2-methyl-1H-indol-3-yl)acetoxymethyl]-1-(pyrrolidin-1-yl)diazen-1-ium-1,2-diolate], the IC50 against ovine COX-1 and at ovine COX-2 was > 100 µM in each case. Further, the ED50 in series [1] is 10.7 mg/kg. Further, the “fold less potent relative to the parent drug (ID50)” value in series [1] (carrageenan-induced rat paw edema, oral) is on record as “about 2.5 fold”. In addition, the “% of Nitric oxide released, PBS (pH 7.4)” value in series [2] was 15.1 ± 0.1%. Further, in the series with gastric ulcers (equivalent amount to 30 mg of indomethacin/kg), the Ulcer index is listed as 0.7 ± 0.11^f mm. In addition, the “% of Nitric oxide released, PLE” value in the series with pig liver esterase amounted to 16.3 ± 0.1%.

As to `COc1ccc2c(c1)c(CC(=O)OCON=[N+]([O-])N(C)C)c(C)n2C(=O)c1ccc(Cl)cc1` [Compound 16, O^2-[2-(1-(4-Chlorobenzoyl)-5-methoxy-2-methyl-1H-indol-3-yl)acetoxymethyl]-1-(dimethylamino)diazen-1-ium-1,2-diolate], the IC50 at ovine COX-1 and against ovine COX-2 was > 100 µM throughout. Besides, in series [1], the ED50 worked out at 5.9 mg/kg. Further, the “% of Nitric oxide released, PBS (pH 7.4)” value in series [2] is on record as 14.3 ± 0.1%. Also, the “% of Nitric oxide released, PLE” value with pig liver esterase is 16.9 ± 0.1%.

Regarding `COc1ccc2c(c1)c(CC(=O)O)c(C)n2C(=O)c1ccc(Cl)cc1` [Indomethacin, indomethacin, reference compound], in series [1], the ED50 was found to be 4.2 mg/kg.

Regarding `[Na+].[O-]N=[N+]([O-])N1CCCC1` [O^2-sodium 1-(pyrrolidin-1-yl)diazen-1-ium-1,2-diolate, reference compound], the “% of Nitric oxide released, PBS (pH 7.4)” value in series [2] came to 94.0 ± 0.1%.

For orientation: IC50 means the concentration that gives 50% inhibition. Read a high IC50 as weaker potency.
